Measured values from BindingDB's records for doi:10.1016/0960-894X(95)00287-4 (1995).

Columns and labels:
[1] = Inhibitory activity against Opioid receptor delta 1 binding to bovine striatal membrane
[2] = Inhibitory activity against Opioid receptor kappa1 binding to bovine striatal membrane

Row | Compound | IC50 [1] [nM] | IC50 [2] [nM]
1 | C[C@@]12Oc3c(O)ccc4c3[C@@]13CCN(CC1CC1)[C@H](C4)[C@]3(NC(=O)CSSCC(=O)N[C@@]13CCC(=O)[C@]4(C)Oc5c(O)ccc6c5[C@@]41CCN(CC1CC1)[C@@H]3C6)CCC2=O | 5.3 | 7.7
2 | CN1CC[C@]23c4c5ccc(O)c4O[C@@]2(C)C(=O)CC[C@@]3(NC(=O)CSSCC(=O)N[C@@]23CCC(=O)[C@]4(C)Oc6c(O)ccc7c6[C@@]42CCN(C)C3C7)C1C5 [MET-TAMO and N-CPM-MET-TAMO analogue] | 52 | 89
